According to ChEMBL document CHEMBL4229536, “In vitro and in vivo pharmacokinetic and pharmacodynamic study of MBRI-001, a deuterium-substituted plinabulin derivative as a potent anti-cancer agent” (Bioorg Med Chem, 2018):

Key:
[1] = tested on: Mus musculus; test: Toxicity in Balb/c mouse assessed as mortality at 20 to 40 mg/kg, iv administered three times in a day every 2 days for 15 consecutive days; format: organism-based; conditions: in vivo, 48 h
[2] = Clearance in rat liver microsomes at 50 uM in presence of NADPH by LC-MS/MS analysis; format: ADME, microsome; conditions: read-out: CLH
[3] = Stability in rat plasma at 1 uM after 40 mins by LC-MS/MS analysis; format: ADME, cell-free; conditions: read-out: Stability
[4] = Stability in rat plasma at 1 uM after 20 mins by LC-MS/MS analysis; format: ADME, cell-free; conditions: read-out: Stability
[5] = Half life in rat liver microsomes at 50 uM in presence of NADPH by LC-MS/MS analysis; format: ADME, microsome
[6] = Stability in rat liver microsomes at 50 uM after 5 mins in presence of NADPH by LC-MS/MS analysis; format: ADME, microsome; conditions: microsomes, 5 min, 50 µM
[7] = Stability in rat plasma at 1 uM after 10 mins by LC-MS/MS analysis; format: ADME, cell-free; conditions: read-out: Stability
[8] = target: Cytochrome P450 3A4 (Homo sapiens, UniProt P08684); test: Inhibition of CYP3A4 in human liver microsomes preincubated for 10 mins followed by NADPH addition measured after 10 mins by LC-MS/MS analysis; format: ADME
[9] = target: T1, Cytochrome P450 1A2 (Homo sapiens, UniProt P05177); test: Inhibition of CYP1A2 in human liver microsomes preincubated for 10 mins followed by NADPH addition measured after 10 mins by LC-MS/MS analysis; format: ADME
T1 sequence (P05177 whole entry): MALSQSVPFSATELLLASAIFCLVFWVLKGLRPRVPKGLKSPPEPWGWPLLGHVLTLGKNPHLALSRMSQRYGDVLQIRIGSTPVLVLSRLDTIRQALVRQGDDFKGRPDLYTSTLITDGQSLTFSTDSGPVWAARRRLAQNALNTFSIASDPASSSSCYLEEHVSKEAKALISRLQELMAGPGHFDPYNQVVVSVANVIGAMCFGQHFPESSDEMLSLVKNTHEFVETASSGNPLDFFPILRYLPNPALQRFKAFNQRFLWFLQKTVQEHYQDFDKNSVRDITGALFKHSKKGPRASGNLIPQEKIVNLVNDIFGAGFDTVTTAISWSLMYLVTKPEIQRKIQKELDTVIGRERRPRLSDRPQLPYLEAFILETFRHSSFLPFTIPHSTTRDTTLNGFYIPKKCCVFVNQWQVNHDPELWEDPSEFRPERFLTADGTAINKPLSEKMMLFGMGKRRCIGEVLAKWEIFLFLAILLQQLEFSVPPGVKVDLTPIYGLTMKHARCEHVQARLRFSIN

[10] = Stability in rat liver microsomes at 50 uM after 90 mins in presence of NADPH by LC-MS/MS analysis; format: ADME, microsome; conditions: read-out: Stability
[11] = Stability in rat liver microsomes at 50 uM after 150 mins in presence of NADPH by LC-MS/MS analysis; format: ADME, microsome; conditions: read-out: Stability
[12] = target: Cytochrome P450 2D6 (Homo sapiens, UniProt P10635); test: Inhibition of CYP2D6 in human liver microsomes preincubated for 10 mins followed by NADPH addition measured after 10 mins by LC-MS/MS analysis; format: ADME
[13] = Protein binding in human plasma at 2 uM after 4 hrs by LC-MS/MS analysis; format: ADME, cell-free; conditions: read-out: PPB (converted)
[14] = Stability in rat plasma at 1 uM after 60 mins by LC-MS/MS analysis; format: ADME, cell-free; conditions: read-out: Stability
[15] = Protein binding in Beagle dog plasma at 2 uM after 4 hrs by LC-MS/MS analysis; format: ADME, cell-free, Canis lupus familiaris; conditions: read-out: PPB (converted)
[16] = target: Cytochrome P450 2C9 (Homo sapiens, UniProt P11712); test: Inhibition of CYP2C9 in human liver microsomes preincubated for 10 mins followed by NADPH addition measured after 10 mins by LC-MS/MS analysis; format: ADME
[17] = Protein binding in Sprague-Dawley rat plasma at 2 uM after 4 hrs by LC-MS/MS analysis; format: ADME, cell-free; conditions: read-out: PPB (converted)
[18] = Stability in rat liver microsomes at 50 uM after 60 mins in presence of NADPH by LC-MS/MS analysis; format: ADME, microsome; conditions: read-out: Stability
[19] = Stability in rat liver microsomes at 50 uM after 210 mins in presence of NADPH by LC-MS/MS analysis; format: ADME, microsome; conditions: microsomes, 3.5 h, 50 µM
[20] = Stability in rat liver microsomes at 50 uM after 10 mins in presence of NADPH by LC-MS/MS analysis; format: ADME, microsome; conditions: microsomes, 10 min, 50 µM
[21] = Stability in rat liver microsomes at 50 uM after 20 mins in presence of NADPH by LC-MS/MS analysis; format: ADME, microsome; conditions: read-out: Stability
[22] = Stability in rat plasma at 1 uM after 120 mins by LC-MS/MS analysis; format: ADME, cell-free; conditions: read-out: Stability
[23] = Stability in rat liver microsomes at 50 uM after 40 mins in presence of NADPH by LC-MS/MS analysis; format: ADME, microsome; conditions: read-out: Stability
[24] = target: Cytochrome P450 2C19 (Homo sapiens, UniProt P33261); test: Inhibition of CYP2C19 in human liver microsomes preincubated for 10 mins followed by NADPH addition measured after 10 mins by LC-MS/MS analysis; format: ADME
[25] = Stability in rat plasma at 1 uM after 90 mins by LC-MS/MS analysis; format: ADME, cell-free; conditions: read-out: Stability
[26] = Stability in rat plasma at 1 uM after 5 mins by LC-MS/MS analysis; format: ADME, cell-free; conditions: read-out: Stability
[27] = Stability in rat liver microsomes at 50 uM after 120 mins in presence of NADPH by LC-MS/MS analysis; format: ADME, microsome; conditions: read-out: Stability
[28] = Stability in rat liver microsomes at 50 uM after 270 mins in presence of NADPH by LC-MS/MS analysis; format: ADME, microsome; conditions: 4.5 h
[29] = tested on: Mus musculus; test: Toxicity in nude mouse xenografted with human NCI-H460 cells assessed as death at 25 to 100 mg/kg, po qd for 14 consecutive days; format: organism-based; conditions: in vivo

Sequence of Cytochrome P450 2C19 (P33261 whole entry): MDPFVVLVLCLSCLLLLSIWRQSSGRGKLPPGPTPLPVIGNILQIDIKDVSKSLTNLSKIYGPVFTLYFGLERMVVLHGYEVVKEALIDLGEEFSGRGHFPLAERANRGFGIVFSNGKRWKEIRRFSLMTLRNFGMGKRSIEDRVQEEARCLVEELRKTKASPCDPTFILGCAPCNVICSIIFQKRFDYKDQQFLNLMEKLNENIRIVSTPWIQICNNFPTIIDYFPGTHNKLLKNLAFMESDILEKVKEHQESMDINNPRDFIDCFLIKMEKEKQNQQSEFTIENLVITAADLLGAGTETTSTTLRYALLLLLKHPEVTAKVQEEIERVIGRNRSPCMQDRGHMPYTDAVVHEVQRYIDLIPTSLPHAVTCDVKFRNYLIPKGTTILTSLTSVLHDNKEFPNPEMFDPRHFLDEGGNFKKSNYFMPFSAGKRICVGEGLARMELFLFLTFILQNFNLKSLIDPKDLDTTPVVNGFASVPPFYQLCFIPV
Sequence of Cytochrome P450 3A4 (P08684 whole entry): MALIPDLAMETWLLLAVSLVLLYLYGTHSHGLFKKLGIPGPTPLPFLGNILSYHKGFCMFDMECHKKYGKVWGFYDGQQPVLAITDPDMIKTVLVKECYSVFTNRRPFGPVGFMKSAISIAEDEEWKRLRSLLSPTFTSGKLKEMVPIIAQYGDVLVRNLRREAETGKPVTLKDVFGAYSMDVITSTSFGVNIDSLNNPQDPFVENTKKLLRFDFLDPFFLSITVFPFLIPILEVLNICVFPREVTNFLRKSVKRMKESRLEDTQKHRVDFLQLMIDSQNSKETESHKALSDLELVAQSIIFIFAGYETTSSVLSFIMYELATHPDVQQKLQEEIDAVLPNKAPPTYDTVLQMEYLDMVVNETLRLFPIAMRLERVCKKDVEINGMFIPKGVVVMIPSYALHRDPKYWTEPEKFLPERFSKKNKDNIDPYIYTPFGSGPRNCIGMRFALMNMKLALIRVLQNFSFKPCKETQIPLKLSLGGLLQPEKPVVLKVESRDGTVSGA
Sequence of Cytochrome P450 2C9 (P11712 whole entry): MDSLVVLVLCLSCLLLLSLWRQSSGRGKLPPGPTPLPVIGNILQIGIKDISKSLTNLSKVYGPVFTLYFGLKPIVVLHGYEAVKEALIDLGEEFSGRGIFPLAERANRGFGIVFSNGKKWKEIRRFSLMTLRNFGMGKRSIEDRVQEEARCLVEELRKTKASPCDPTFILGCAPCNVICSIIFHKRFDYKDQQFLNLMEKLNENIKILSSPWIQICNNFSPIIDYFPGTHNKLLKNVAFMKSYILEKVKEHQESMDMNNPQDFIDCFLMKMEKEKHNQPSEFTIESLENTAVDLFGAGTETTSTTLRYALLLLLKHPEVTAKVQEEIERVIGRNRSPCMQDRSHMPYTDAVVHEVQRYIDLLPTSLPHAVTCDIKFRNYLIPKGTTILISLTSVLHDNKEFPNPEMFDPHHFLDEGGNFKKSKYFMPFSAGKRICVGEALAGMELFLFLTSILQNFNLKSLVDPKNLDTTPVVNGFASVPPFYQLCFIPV
Sequence of Cytochrome P450 2D6 (P10635 whole entry): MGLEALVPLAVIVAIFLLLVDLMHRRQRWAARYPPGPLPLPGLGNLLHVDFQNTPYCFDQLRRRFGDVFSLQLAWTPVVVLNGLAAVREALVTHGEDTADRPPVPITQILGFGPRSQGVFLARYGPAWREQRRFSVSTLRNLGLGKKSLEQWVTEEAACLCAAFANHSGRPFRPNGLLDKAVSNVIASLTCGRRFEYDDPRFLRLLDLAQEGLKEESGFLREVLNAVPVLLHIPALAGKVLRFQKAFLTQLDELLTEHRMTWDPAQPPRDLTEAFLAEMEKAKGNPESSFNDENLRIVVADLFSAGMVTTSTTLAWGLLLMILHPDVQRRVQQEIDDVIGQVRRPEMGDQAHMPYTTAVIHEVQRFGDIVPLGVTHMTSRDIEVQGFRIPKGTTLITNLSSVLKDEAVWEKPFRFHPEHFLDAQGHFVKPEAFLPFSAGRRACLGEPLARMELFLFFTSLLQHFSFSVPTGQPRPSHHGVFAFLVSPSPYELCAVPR

## Nc1ccn([C@@H]2O[C@H](CO)[C@@H](O)C2(F)F)c(=O)n1 [GEMCITABINE]
[1]
  Activity: Non-Toxic

## CC(C)(C)c1[nH]cnc1/C=c1\[nH]c(=O)/c(=C/c2ccccc2)[nH]c1=O [PLINABULIN]
[2]
  microsomal CLint at 50 µM: 23.4 µL/min/mg
[3]
  remaining at 40 min, 1 µM: 99%
[4]
  remaining at 20 min, 1 µM: 98.2%
[5]
  t1/2: 59.34 min
[6]
  Stability: 77.21%
[7]
  remaining at 10 min, 1 µM: 97.7%
[8]
  IC50: > 50 µM
[9]
  IC50: 1.24 µM
[10]
  remaining at 1.5 h, 50 µM: 41.1%
[11]
  remaining at 2.5 h, 50 µM: 29.9%
[12]
  IC50: > 50 µM
[13]
  fraction unbound at 4 h, 2 µM: 0.018
[14]
  remaining at 1 h, 1 µM: 103%
[15]
  fraction unbound at 4 h, 2 µM: 0.028
[16]
  IC50: 0.53 µM
[17]
  fraction unbound at 4 h, 2 µM: 0.039
[18]
  remaining at 1 h, 50 µM: 44.8%
[19]
  Stability: 29.64%
[20]
  Stability: 65.58%
[21]
  remaining at 20 min, 50 µM: 63.5%
[22]
  remaining at 2 h, 1 µM: 109%
[23]
  remaining at 40 min, 50 µM: 56.6%
[24]
  IC50: 4.23 µM
[25]
  remaining at 1.5 h, 1 µM: 110%
[26]
  remaining at 5 min, 1 µM: 95.5%
[27]
  remaining at 2 h, 50 µM: 29.9%
[28]
  Stability: 34.94%

## COc1cc2ncnc(Nc3ccc(F)c(Cl)c3)c2cc1OCCCN1CCOCC1 [GEFITINIB]
[29]
  Activity: Non-Toxic
